The results in this text go back to ChEMBL document CHEMBL5356963, “Discovery of flavone-derivatives as the new skeleton of transient receptor potential vanilloid 3 channel antagonists” (Bioorg Med Chem Lett, 2024).

Active and inactive are the calls of the source. The rule behind the calls is not given here.

Common to all, as to format: cell-based
The target in assay [1] is T1, Transient receptor potential cation channel subfamily V member 3 (Homo sapiens) (UniProt Q8NET8).
T1 sequence (whole entry): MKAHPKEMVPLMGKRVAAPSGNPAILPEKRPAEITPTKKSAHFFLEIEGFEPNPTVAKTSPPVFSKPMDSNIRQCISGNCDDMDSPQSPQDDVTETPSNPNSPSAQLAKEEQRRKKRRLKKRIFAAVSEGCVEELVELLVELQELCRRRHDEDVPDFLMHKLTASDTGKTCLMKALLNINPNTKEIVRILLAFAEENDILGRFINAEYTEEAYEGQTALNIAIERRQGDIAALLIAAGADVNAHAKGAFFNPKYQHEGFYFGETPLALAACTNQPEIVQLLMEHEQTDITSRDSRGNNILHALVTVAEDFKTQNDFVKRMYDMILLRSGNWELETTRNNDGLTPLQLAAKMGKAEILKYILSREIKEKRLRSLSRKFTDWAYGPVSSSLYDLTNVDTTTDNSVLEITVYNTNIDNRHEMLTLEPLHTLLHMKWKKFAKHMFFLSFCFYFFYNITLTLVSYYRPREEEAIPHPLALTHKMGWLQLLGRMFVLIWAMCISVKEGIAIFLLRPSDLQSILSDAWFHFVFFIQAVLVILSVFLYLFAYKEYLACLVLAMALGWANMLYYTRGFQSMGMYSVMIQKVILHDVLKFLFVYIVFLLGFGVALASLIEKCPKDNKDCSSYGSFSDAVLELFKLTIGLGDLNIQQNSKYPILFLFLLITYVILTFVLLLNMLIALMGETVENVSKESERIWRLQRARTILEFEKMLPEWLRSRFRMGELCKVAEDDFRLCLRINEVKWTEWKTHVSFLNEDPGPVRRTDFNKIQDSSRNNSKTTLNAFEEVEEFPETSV
The assay can be described thus: Antagonist activity at human TRPV3 channel expressed in HEK293T cells assessed as inhibition of 2-APB induced channel current at 50 uM by whole cell patch clamp recordings relative to control.

Assay [2] has as its target T2, Transient receptor potential cation channel subfamily V member 3 (Homo sapiens, UniProt Q8NET8).
T2 sequence (Q8NET8 whole entry): T1 sequence (whole entry)
The assay can be described thus: Antagonist activity at human TRPV3 channel expressed in HEK293T cells assessed as inhibition of 2-APB induced channel current by whole cell patch clamp recordings. In general terms: Patch clamp records ionic current or voltage across a cell membrane.

The target in assay [3] is Transient receptor potential cation channel subfamily V member 4 (Homo sapiens) (UniProt Q9HBA0). The assay can be described thus: Antagonist activity at TRPV4 (unknown origin) expressed in HEK293T cells assessed as inhibition of agonist induced channel current by whole-cell patch clamp recordings.
Sequence of Transient receptor potential cation channel subfamily V member 4 (Homo sapiens) (Q9HBA0 whole entry): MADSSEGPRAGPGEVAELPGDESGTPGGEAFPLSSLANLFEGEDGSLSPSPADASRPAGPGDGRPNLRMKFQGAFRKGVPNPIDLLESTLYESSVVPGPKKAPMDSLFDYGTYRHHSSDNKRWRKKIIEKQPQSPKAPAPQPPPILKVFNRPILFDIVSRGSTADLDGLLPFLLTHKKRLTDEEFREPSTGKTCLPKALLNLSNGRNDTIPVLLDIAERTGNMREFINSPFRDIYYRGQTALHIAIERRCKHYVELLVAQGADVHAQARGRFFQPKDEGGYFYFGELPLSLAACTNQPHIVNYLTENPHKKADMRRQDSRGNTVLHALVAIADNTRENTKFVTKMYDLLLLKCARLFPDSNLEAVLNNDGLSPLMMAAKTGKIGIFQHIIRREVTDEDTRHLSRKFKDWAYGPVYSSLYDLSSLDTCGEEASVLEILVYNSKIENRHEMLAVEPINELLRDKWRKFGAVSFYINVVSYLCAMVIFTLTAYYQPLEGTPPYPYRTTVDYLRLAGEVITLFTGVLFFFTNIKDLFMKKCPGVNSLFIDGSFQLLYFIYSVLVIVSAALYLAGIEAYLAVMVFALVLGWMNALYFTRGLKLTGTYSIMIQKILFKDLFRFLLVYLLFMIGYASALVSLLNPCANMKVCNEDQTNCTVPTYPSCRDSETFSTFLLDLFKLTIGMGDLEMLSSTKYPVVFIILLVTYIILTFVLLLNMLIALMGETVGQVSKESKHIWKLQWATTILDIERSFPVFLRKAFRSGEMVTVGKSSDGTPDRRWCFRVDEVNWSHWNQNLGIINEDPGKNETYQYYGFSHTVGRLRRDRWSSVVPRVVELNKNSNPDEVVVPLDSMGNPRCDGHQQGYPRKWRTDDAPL
In assay [4] the target is Transient receptor potential cation channel subfamily A member 1 (Homo sapiens) (UniProt O75762). The assay can be described thus: Antagonist activity at TRPA1 (unknown origin) expressed in HEK293T cells assessed as inhibition of agonist induced channel current by whole-cell patch clamp recordings.
Sequence of Transient receptor potential cation channel subfamily A member 1 (Homo sapiens) (O75762 whole entry): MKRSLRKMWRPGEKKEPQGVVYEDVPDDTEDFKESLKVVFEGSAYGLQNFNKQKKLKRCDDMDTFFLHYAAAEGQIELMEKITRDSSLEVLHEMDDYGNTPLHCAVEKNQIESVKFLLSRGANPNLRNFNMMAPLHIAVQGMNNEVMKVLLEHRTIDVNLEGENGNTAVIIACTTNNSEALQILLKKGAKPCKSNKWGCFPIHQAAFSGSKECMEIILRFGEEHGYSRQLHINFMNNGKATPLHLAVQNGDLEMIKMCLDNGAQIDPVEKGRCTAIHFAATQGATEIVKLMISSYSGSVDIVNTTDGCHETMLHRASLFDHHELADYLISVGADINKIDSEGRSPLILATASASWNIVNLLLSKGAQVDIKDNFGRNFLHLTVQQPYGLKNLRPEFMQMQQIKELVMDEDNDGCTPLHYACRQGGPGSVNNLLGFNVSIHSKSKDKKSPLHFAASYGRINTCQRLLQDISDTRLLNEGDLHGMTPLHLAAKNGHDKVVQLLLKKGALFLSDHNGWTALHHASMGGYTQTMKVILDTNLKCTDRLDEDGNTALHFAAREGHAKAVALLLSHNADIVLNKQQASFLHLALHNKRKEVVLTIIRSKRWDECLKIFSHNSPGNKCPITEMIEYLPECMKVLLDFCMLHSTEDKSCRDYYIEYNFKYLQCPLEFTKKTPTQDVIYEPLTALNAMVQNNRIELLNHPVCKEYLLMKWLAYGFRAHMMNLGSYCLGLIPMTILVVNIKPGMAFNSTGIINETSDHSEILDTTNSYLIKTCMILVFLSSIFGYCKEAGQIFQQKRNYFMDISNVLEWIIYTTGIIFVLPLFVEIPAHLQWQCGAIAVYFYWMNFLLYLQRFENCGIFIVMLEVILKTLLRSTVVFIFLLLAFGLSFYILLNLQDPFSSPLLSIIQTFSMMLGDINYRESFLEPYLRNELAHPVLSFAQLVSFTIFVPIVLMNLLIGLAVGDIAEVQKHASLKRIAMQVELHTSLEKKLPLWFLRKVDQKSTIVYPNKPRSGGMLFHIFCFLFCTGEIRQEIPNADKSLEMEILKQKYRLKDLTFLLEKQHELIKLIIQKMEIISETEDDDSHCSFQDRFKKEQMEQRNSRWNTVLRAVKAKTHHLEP
Assay [5] concerns the target Transient receptor potential cation channel subfamily V member 1 (Homo sapiens) (UniProt Q8NER1). The assay can be described thus: Antagonist activity at TRPV1 (unknown origin) expressed in HEK293T cells assessed as inhibition of agonist induced channel current by whole-cell patch clamp recordings.
Assay [6] deals with Transient receptor potential cation channel subfamily M member 8 (Homo sapiens) (UniProt Q7Z2W7). The assay can be described thus: Antagonist activity at TRPM8 (unknown origin) expressed in HEK293T cells assessed as inhibition of agonist induced channel current by whole-cell patch clamp recordings.
Sequence of Transient receptor potential cation channel subfamily M member 8 (Homo sapiens) (Q7Z2W7 whole entry, looked up): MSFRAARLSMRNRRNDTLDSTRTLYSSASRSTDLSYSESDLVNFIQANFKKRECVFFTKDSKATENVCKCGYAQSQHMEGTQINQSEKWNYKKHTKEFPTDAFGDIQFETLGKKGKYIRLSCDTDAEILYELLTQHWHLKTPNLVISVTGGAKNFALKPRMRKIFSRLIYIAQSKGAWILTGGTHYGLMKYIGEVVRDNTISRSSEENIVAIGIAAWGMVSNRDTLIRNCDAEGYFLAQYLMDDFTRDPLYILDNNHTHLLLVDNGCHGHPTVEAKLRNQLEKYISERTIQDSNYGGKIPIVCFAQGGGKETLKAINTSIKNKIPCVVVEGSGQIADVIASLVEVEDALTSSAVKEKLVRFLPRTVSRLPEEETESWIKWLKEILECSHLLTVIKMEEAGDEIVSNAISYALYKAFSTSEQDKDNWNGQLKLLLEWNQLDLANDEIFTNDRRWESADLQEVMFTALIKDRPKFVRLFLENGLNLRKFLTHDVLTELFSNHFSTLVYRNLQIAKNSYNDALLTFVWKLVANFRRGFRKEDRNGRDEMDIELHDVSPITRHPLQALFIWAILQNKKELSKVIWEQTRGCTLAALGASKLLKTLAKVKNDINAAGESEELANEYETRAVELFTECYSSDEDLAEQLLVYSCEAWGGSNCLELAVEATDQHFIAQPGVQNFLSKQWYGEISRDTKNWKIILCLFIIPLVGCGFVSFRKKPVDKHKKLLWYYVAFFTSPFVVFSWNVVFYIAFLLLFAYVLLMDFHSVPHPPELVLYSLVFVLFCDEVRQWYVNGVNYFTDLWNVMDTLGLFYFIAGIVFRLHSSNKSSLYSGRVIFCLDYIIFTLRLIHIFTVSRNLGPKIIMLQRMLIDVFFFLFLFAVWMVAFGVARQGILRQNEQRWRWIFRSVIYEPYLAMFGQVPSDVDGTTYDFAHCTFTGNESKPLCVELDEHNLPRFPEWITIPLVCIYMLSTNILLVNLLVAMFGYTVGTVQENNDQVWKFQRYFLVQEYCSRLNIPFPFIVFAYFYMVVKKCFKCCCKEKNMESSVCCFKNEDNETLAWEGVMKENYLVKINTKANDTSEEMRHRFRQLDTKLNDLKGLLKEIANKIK

Sequence of Transient receptor potential cation channel subfamily V member 1 (Homo sapiens) (Q8NER1 whole entry): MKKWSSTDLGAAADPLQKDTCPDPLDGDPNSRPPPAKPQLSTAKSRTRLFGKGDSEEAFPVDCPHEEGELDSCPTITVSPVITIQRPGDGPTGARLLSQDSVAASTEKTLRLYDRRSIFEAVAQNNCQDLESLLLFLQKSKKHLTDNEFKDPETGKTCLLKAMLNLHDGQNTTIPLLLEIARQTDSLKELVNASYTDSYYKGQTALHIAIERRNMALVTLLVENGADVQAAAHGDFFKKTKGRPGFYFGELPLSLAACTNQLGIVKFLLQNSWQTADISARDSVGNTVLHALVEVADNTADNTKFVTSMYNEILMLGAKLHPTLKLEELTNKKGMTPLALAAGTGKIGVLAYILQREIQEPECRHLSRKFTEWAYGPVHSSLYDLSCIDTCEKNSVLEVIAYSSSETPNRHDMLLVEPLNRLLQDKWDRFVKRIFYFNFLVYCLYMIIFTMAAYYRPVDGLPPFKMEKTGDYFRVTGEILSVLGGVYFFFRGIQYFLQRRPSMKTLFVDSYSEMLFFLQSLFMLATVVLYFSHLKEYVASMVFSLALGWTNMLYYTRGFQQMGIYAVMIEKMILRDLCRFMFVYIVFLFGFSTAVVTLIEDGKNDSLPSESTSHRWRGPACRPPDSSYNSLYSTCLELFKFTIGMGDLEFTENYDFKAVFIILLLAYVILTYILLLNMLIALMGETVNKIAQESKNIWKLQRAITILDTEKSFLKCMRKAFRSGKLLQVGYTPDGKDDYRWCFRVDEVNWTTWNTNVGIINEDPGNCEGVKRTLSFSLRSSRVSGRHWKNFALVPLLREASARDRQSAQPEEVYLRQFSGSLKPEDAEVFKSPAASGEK

The inhibition is how much of the control response was suppressed. As to `O=c1cc(-c2ccc(Br)cc2)oc2cc(O)ccc12`, the inhibition in assay [1] worked out at 1.94%.
As to `COCOc1cc(OCOC)c2c(c1)OC(c1ccc(F)cc1)CC2=O` (stereo not drawn), the inhibition in assay [1] was determined as 5.55%.
Turning to `COc1ccc(-c2cc(=O)c3c(O)cccc3o2)cc1`, the inhibition in assay [1] is 4.68%.
Regarding `O=c1cc(-c2cccc(O)c2)oc2c(O)c(O)ccc12`, the inhibition in assay [1] is 31.4%.
On the same count and under the same terms, for `O=c1cc(-c2ccc(OC(F)(F)F)cc2)oc2cc(O)cc(O)c12` the value was 3.81%; for `Cc1ccc(-c2cc(=O)c3c(O)cc(O)cc3o2)cc1`, 10.3%; for `COc1ccc(C2CC(=O)c3c(O)cccc3O2)cc1` (stereo not drawn), 4.96%.
The same measure, in the same setting: for `O=c1cc(-c2ccc(O)cc2F)oc2cc(O)cc(O)c12` the value was 13%.
In the case of `O=c1cc(-c2ccc(O)cc2Br)oc2cc(O)cc(O)c12`, the inhibition in assay [1] (filed as antagonist) was 51.7%.
Broadly, the IC50 is the midpoint of a concentration-inhibition curve. On to `C[C@@H]1O[C@@H](O[C@@H]2[C@@H](O)[C@H](OCCc3ccc(O)c(O)c3)O[C@H](CO[C@@H]3OC[C@](O)(CO)[C@H]3O)[C@H]2OC(=O)/C=C/c2ccc(O)c(O)c2)[C@H](O)[C@H](O)[C@H]1O`, for which the concentration for half-maximal inhibition (IC50) in assay [2] amounted to 10.8 µM. For the same compound, the inhibition in assay [1] (filed as antagonist) stood at 58.8%.
`COc1ccc(-c2cc(=O)c3c(O)cc(O)cc3o2)cc1` [ACACETIN]: the result in assay [3], in assay [4], in assay [5] and in assay [6] was inactive. In addition, the IC50 in assay [2] was 0.62 µM. Moreover, the inhibition in assay [1] (filed as antagonist) was determined as 61.8%.
As to `O=c1cc(-c2ccc(F)cc2)oc2cc(O)cc(O)c12`, in assay [1], the inhibition worked out at 21.2%.
